Laboratory results taken from US20230058189A1, “QUINOLIN-4-ONE AND 4(1H)-CINNOLINONE COMPOUNDS AND METHODS OF USING SAME” (Frequency Therapeutics, Inc., priority 2019, published 2023).
≈ marks a conversion by molar mass, not a printed value.

Legend:
[1] = test system: Lgr5+ cells (cochlear stem cells); experiment: Lgr5+ assay: expansion of Lgr5-positive cochlear cells in 3D culture; type: cell-based, mouse; settings: for % of Lgr5+ Positive Cells / Potency (Lgr5+ activity): 10 days culture with EGF, bFGF, IGF1, approximate values; for Potency (Lgr5+ activity): effective concentration for Lgr5+ expansion; for Lgr5 GFP+ progenitor cell proliferation (Lgr5 positive cell count) / enrichment of Lgr5 GFP+ cochlear progenitor cells (percent of Lgr5 positive cells): in a background of growth factors, compared to CHIR-99021 and its combinations (figures)
Source text: “Stem Cell Proliferation Assay” as used herein is an assay to determine the capacity for agent(s) to induce the creation of stem cells from a starting cell population. In an exemplary Stem Cell Proliferation Assay, the number of cells for an initial cell population is harvested from a Lgr5-GFP mouse such as a B6.129P2-Lgr5tm1(cre/ERT2)Cle/J mouse (also known as Lgr5-EGFP-IRES-creERT2 or Lgr5-GFP mouse, Jackson Lab Stock No: 008875) between the age of 3 to 7 days, by isolating the organ of Corti sensory epithelium and dissociating the epithelium into single cells. Approximately 5000 cells are entrapped in 40 μl of culture substrate (for example, Matrigel (Corning, Growth Factor Reduced)) and placed at the center of wells in a 24-well plate with 500 μl of an appropriate culture media, growth factors and agent being tested. Appropriate culture media and growth factors include Advanced DMEM/F12 with media supplements (1×N2, 1×B27, 2 mM Glutamax, 10 mM HEPES, 1 mM N-acetylcysteine, and 100 U/ml penicillin/100 μg/ml streptomycin) and growth factors (50 ng/ml EGF, 50 ng/ml bFGF, and 50 ng/ml IGF-1) as well as the agent(s) being assessed are added into each well. Cells are cultured for 10 days in a standard cell culture incubator at 37° C. and 5% CO2, with media change every 2 days. The number of Lgr5^+ cells is quantified by counting the number of cells identified as Lgr5+ in an in vitro Lgr5 activity assay (i.e., an assay mearing in vitro Lgr5 activity). The fraction of cells that are Lgr5^+ is quantified by dividing the number of cells identified as Lgr5^+ in a cell population by the total number of cells present in the cell population. The average Lgr5^+ activity of a population is quantified by measuring the average mRNA expression level of Lgr5 of the population normalized using suitable and unregulated references or housekeeping genes (e.g., Hprt). The number of hair cells in a population may be measured by staining with hair cell marker (e.g., MyosinVIIa), or using an endogenous reporter of hair cell genes (e.g., Pou4f3-GFP, Atoh1-nGFP) and analyzing using flow cytometry. The fraction of cells that are hair cells is quantified by dividing the number of cells identified as hair cells in a cell population by the total number of cells present in the cell population. Lgr5 activity can be measured by qPCR.
The compounds of the present disclosure were used in Lgr5-EGFP-IRES-Cre-ER mice (Barker et al., 2007) to analyze the effects of small molecules on cochlear stem cell expansion.
Isolation of stem cells from the inner ear: All animal studies were conducted under an approved institutional protocol according to National Institutes of Health guidelines. For experiments with neonatal mice (postnatal days 1-3), the cochleae were dissected in Hank's Balanced Salt Solution (HBSS) and the organs of Corti were separated from the stria vascularis and the modiolus. The organs of Corti were then treated with Cell Recovery Solution (Corning) for 1 hour to separate cochlear epithelium from the underlying mesenchyme. Epithelia were then collected and treated with TrypLE (Life Technologies) for 15-20 minutes at 37° C. Single cells obtained by mechanical trituration were filtered (40 μm) and suspended in Matrigel® (Corning) for 3D culture.
Cells were cultured in a 1:1 mixture of DMEM and F12, supplemented with Glutamax (GIBCO), N2, B27 (Invitrogen), EGF (50 ng/ml; Chemicon), bFGF (50 ng/ml; Chemicon), IGF1 (50 ng/ml; Chemicon) and the composition provided herein. Medium was changed every other day.
Lgr5-positive cells were quantified after 10 days (D10) in culture in multiple conditions. Cell colonies were dissociated into single cells using TrypLE (Gibco). The cells were then stained with propidium iodide (P1) and were analyzed using a flow cytometer for Lgr5-GFP expression. The number of GFP-positive cells and the percentage of GFP-positive cells were quantified. […]

[2] = Thermodynamic aqueous solubility at pH 7.4; type: physicochemical; settings: aqueous buffer, thermodynamic from solid, phosphate buffer pH 7.4, 25° C., approximate values, read-out: Concentration (thermodynamic aqueous solubility)
Method: The aqueous thermodynamic solubilities of the compounds of the present disclosure were measured at pH 7.4.
Determining suitability for use of a compound, e.g., as a therapeutic agent can include determining the thermodynamic solubility of the compound. An example of this determination follows: Accurately weigh about 1 mg of the powder of each compound into a glass insert vial and phosphate buffer into each vial of a capless Solubility Sample plate with the volume of 1 mL per mg. Next, add one stir stick to each vial and seal with a molded PTDE/SIL 96-Well Plate Cover. Transfer the Solubility Sample plate to an Eppendorf Thermomixer Comfort plate shaker and shake the plate at 25° C. at 1,100 rpm for 24 hours. At the end of the incubation, open the cover and remove the stir sticks using a big magnet and transfer the samples from the Solubility Sample plate into the filter plate. Using the vacuum manifold, all the samples were filtered. An aliquot of 100 μL was transferred from filtrate to a new 96-well plate by addition of 900 μL of a mixture of H2O and acetonitrile containing an internal standard (1:1) (10 fold) and 10 μL of the diluted solution was pipetted into a new 96-well plate by addition of 990 μL of a mixture of H2O and acetonitrile containing internal standard (1:1) (1,000 fold). The dilution factor may be changed according to the solubility value and the LC/MS signal response.
To prepare standards for the assay, accurately weigh about 1 mg of the powder of each compound into a glass insert vial, add DMSO into each vial of the Standard Plate with the volume of 1 mL per mg to obtain the 1 mg/mL STD sample. Aliquots of 10 μL were taken from 1 mg/mL STD sample to a new 96-well plate followed by addition of 990 μL of a mixture of H2O and acetonitrile containing internal standard (1:1) to obtain 10 μg/mL STD and then 10 μL aliquots were taken from 10 μg/mL sample to a new 96-well plate followed by addition of 990 μL of a mixture of H2O and acetonitrile containing internal standard (1:1) to obtain 0.1 μg/mL STD. The concentration of the standard sample may be changed according to the LC/MS signal response.
The samples were analyzed and quantified against the standard of known concentration using LC/MS/MS. The solubility of the test compound was calculated as follows: [Sample]=Area Ratio sample×DF sample×[STD]/Area Ratio STD DF means the dilution factor. Any value of the compounds that is not within the specified limits was rejected and the experiment was repeated.

Row | Structure (SMILES) | solubility thermodynamic at 24 h [2] | % of Lgr5+ Positive Cells [1] | Potency (Lgr5+ activity) [1] | Lgr5 GFP+ progenitor cell proliferation (Lgr5 positive cell count) [1] | enrichment of Lgr5 GFP+ cochlear progenitor cells (percent of Lgr5 positive cells) [1]
1 | CCn1cc(C(=O)O)c(=O)c2c(N)c(F)c(NC3CCC3)cc21 [Compound I-12] | 2.7 µM (≈ 0.862 µg/mL) | 25% | 1.1 µM | – | –
2 | CCn1cc(C(=O)O)c(=O)c2c(N)cc(NCCCc3ccccc3)cc21 [Compound I-57] | < 0.03 µM | 1% | 30 µM | – | –
3 | CCn1cc(C(=O)O)c(=O)c2c(N)c(F)c(N[C@H]3CC[C@@H](N[C@@H]4C[C@H]4c4ccccc4)CC3)cc21 (relative stereo) [Compound I-28] | 4 µM (≈ 1.91 µg/mL) | 40% | 8 µM | generates Lgr5 GFP+ progenitor cell proliferation | generates enrichment of Lgr5 GFP+ cochlear progenitor cells
4 | CCn1cc(C(=O)O)c(=O)c2c(N)c(F)c(NC3CC3)cc21 [Compound I-15] | 2.4 µM (≈ 0.733 µg/mL) | 30% | 3.3 µM | – | –
5 | CCn1cc(C(=O)O)c(=O)c2c(N)c(F)c(Nc3ccccc3)cc21 [Compound I-16] | 1.1 µM (≈ 0.375 µg/mL) | 22% | 1.1 µM | – | –
6 | CCn1cc(C(=O)O)c(=O)c2c(N)c(F)c(N[C@H]3CC[C@H](N[C@@H]4C[C@H]4c4ccccc4)CC3)cc21 (relative stereo) [Compound I-27] | 4.7 µM (≈ 2.25 µg/mL) | 26% | 1.1 µM | – | –
7 | CCn1cc(C#N)c(=O)c2c(N)c(F)c(N[C@@H]3C[C@H]3c3ccccc3)cc21 (relative stereo) [Compound I-38] | < 0.01 µM | 7.5% | 0.123 µM | – | –

Continued, in another order:

Row | solubility thermodynamic at 24 h [2] | Structure (SMILES) | % of Lgr5+ Positive Cells [1] | Potency (Lgr5+ activity) [1] | Lgr5 GFP+ progenitor cell proliferation (Lgr5 positive cell count) [1] | enrichment of Lgr5 GFP+ cochlear progenitor cells (percent of Lgr5 positive cells) [1]
8 | 1.93 µM (≈ 0.819 µg/mL) | CCn1cc(C(=O)O)c(=O)c2c(N)c(F)c(NCCN[C@@H]3C[C@H]3c3ccccc3)cc21 (relative stereo) [Compound I-29] | 38% | 4 µM | generates Lgr5 GFP+ progenitor cell proliferation | generates enrichment of Lgr5 GFP+ cochlear progenitor cells
9 | 0.12 µM (≈ 0.0443 µg/mL) | CCn1cc(C(=O)O)c(=O)c2c(N)c(F)c(NCCc3ccccc3)cc21 [Compound I-18] | 31% | 1.1 µM | – | –
10 | < 0.03 µM | CCn1cc(C(=O)O)c(=O)c2c(N)c(F)c(N[C@@H]3C[C@@H]3c3ccccc3)cc21 (relative stereo) [Compound I-23] | 14% | 2.2 µM | – | –
11 | 0.11 µM (≈ 0.0391 µg/mL) | CCn1cc(C(=O)O)c(=O)c2c(N)c(F)c(NCc3ccccc3)cc21 [Compound I-17] | 22% | 3.3 µM | – | –
12 | 9.6 µM (≈ 4.07 µg/mL) | CCn1cc(C(N)=O)c(=O)c2c(N)c(F)c(NCCN[C@H]3C[C@@H]3c3ccccc3)cc21 (relative stereo) [Compound I-83] | 12% | 1.1 µM | – | –
13 | 1.6 µM (≈ 0.721 µg/mL) | CCn1cc(C(=O)O)c(=O)c2c(N)c(F)c(NC3CC(N[C@@H]4C[C@H]4c4ccccc4)C3)cc21 (relative stereo) [Compound I-70] | 30% | 3.3 µM | – | –
14 | < 10 µM | CCn1cc(C(=O)O)c(=O)c2c(N)c(F)c(N[C@H]3C[C@H](c4ccccc4)C3)cc21 [Compound I-60] | 30% | 0.37 µM | – | –
15 | < 0.002 µM | CCn1cc(C(=O)O)c(=O)c2c(N)c(F)c(N[C@H]3C[C@@H](c4ccccc4)C3)cc21 [Compound I-61] | 30% | 1.1 µM | – | –
16 | 8 µM (≈ 3.51 µg/mL) | CCCn1cc(C(=O)O)c(=O)c2c(N)c(F)c(NCCN[C@@H]3C[C@H]3c3ccccc3)cc21 (relative stereo) [Compound I-87] | 52% | 3.3 µM | – | –
